According to US11311520B2, “Substituted dihydroimidazopyridinediones as MKNK1 and MKNK2 inhibitors” (Bayer Pharma Aktiengesellschaft, priority 2017, dated 2022):

These compounds were tested against human full-length MKNK1 (Homo sapiens (Human), UniProt Q9BUB5, T344D) (assay: MKNK1 kinase high ATP assay (TR-FRET)). Conditions: 2 mM ATP, 15 min preincubation with enzyme, GST-MKNK1 (T344D).
human full-length MKNK1, sequence (Q9BUB5 other isoform, or with tags, fused parts or gaps T344D): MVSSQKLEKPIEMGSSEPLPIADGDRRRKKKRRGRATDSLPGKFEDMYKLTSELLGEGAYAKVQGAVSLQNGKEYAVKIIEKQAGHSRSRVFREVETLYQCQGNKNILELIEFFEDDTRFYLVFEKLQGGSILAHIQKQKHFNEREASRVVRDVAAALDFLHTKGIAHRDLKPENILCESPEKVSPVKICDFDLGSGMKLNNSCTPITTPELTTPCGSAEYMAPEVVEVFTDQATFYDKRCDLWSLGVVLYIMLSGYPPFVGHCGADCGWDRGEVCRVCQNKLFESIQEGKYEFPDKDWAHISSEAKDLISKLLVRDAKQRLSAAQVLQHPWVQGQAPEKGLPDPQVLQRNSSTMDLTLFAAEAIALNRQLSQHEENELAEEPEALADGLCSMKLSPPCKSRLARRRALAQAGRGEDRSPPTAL
Format: biochemical
Procedure, shortened: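 GST-tagged full-length human MKNK1 (1-424, T344D, baculovirus-expressed) preincubated 15 min at 22 °C with compound, then reacted 30 min at 22 °C with 2 mM ATP and 0.06 μM biotinylated peptide (final) in HEPES pH 7.5. Phospho-substrate by TR-FRET (665/622 nm ratio), normalised to no-inhibitor and no-enzyme controls.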
In the case of `Cc1cc(Nc2ncnc3c2CNC3)c(=O)n2c1C(=O)NC21CCCC1` [Example 126, 6′-(6,7-Dihydro-5H-pyrrolo[3,4-d]pyrimidin-4-ylamino)-8′-methyl-2′H-spiro[cyclopentane-1,3′-imidazo[1,5-a]pyridine]-1′,5′-dione], the IC50 is reported as 20.3 nM.
Compound `Cc1cc(Nc2ncnc(N)n2)c(=O)n2c1C(=O)NC21CCC(O)(C(F)(F)F)CC1` (centres unmarked) [Example 127, 6′-[(4-Amino-1,3,5-triazin-2-yl)amino]-4-hydroxy-8′-methyl-4-(trifluoromethyl)-2′H-spiro[cyclohexane-1,3′-imidazo[1,5-a]pyridine]-1′,5′-dione] has an IC50 of 71.2 nM.
For `Cc1cc(Nc2ncnc3[nH]ccc23)c(=O)n2c1C(=O)NC21CCC(O)(C(F)(F)F)CC1` (centres unmarked) [Example 128, 4-Hydroxy-8′-methyl-6′-(7H-pyrrolo[2,3-d]pyrimidin-4-ylamino)-4-(trifluoromethyl)-2′H-spiro[cyclohexane-1,3′-imidazo[1,5-a]pyridine]-1′,5′-dione], the IC50 was 1 nM.
Work on `Cc1cc(Nc2ncnc3sc(C(=O)NCCN(C)C)cc23)c(=O)n2c1C(=O)NC21CCC(O)(C(F)(F)F)CC1` (centres unmarked) [Example 129, N-[2-(Dimethylamino)ethyl]-4-{[4-hydroxy-8′-methyl-1′,5′-dioxo-4-(trifluoromethyl)-1′,5′-dihydro-2′H-spiro[cyclohexane-1,3′-imidazo[1,5-a]pyridin]-6′-yl]amino}thieno[2,3-d]pyrimidine-6-carboxamide] yielded an IC50 of 21 nM.
Work on `Cc1cc(Nc2ncnc3sccc23)c(=O)n2c1C(=O)NC21CCC(O)(C(F)(F)F)CC1` (centres unmarked) [Example 130, 4-Hydroxy-8′-methyl-6′-(thieno[2,3-d]pyrimidin-4-ylamino)-4-(trifluoromethyl)-2′H-spiro[cyclohexane-1,3′-imidazo[1,5-a]pyridine]-1′,5′-dione] yielded an IC50 of 7.9 nM.
`Cc1cc(Nc2ncnc(N)n2)c(=O)n2c1C(=O)NC2(C)C` [Example 131, 6-[(4-Amino-1,3,5-triazin-2-yl)amino]-3,3,8-trimethyl-2,3-dihydroimidazo[1,5-a]pyridine-1,5-dione] was tested, and the IC50 was 32.2 nM.
`Cc1cc(Nc2ncnc3[nH]ccc23)c(=O)n2c1C(=O)NC2(C)C` [Example 132, 3,3,8-Trimethyl-6-(7H-pyrrolo[2,3-d]pyrimidin-4-ylamino)-2,3-dihydroimidazo[1,5-a]pyridine-1,5-dione] was tested, and the IC50 was 0.7 nM.
`Cc1cc(Nc2ncnc3[nH]ncc23)c(=O)n2c1C(=O)NC2(C)C` [Example 133, 3,3,8-Trimethyl-6-(1H-pyrazolo[3,4-d]pyrimidin-4-ylamino)-2,3-dihydroimidazo[1,5-a]pyridine-1,5-dione] gave an IC50 of 10.1 nM.
For `Cc1cc(Nc2ncnc3[nH]cnc23)c(=O)n2c1C(=O)NC2(C)C` [Example 134, 3,3,8-Trimethyl-6-(9H-purin-6-ylamino)-2,3-dihydroimidazo[1,5-a]pyridine-1,5-dione], the IC50 was 5.8 nM.
Compound `Cc1cc(Nc2ncnc3sccc23)c(=O)n2c1C(=O)NC2(C)C` [Example 135, 3,3,8-Trimethyl-6-(thieno[2,3-d]pyrimidin-4-ylamino)-2,3-dihydroimidazo[1,5-a]pyridine-1,5-dione] has an IC50 of 19.8 nM.
Compound `Cc1cc(Nc2ncnc3sc(C(=O)O)cc23)c(=O)n2c1C(=O)NC2(C)C` [Example 136, 4-[(3,3,8-Trimethyl-1,5-dioxo-1,2,3,5-tetrahydroimidazo[1,5-a]pyridin-6-yl)amino]thieno[2,3-d]pyrimidine-6-carboxylic acid] has an IC50 of 122 nM.
Compound `Cc1cc(Nc2ncnc3sc(C(=O)NCCN(C)C)cc23)c(=O)n2c1C(=O)NC2(C)C` [Example 137, N-[2-(Dimethylamino)ethyl]-4-[(3,3,8-trimethyl-1,5-dioxo-1,2,3,5-tetrahydroimidazo[1,5-a]pyridin-6-yl)amino]thieno[2,3-d]pyrimidine-6-carboxamide] has an IC50 of 21.1 nM.
`Cc1cc(Nc2ncnc3sc(C(=O)N(C)CCN(C)C)cc23)c(=O)n2c1C(=O)NC2(C)C` [Example 138, N-[2-(Dimethylamino)ethyl]-N-methyl-4-[(3,3,8-trimethyl-1,5-dioxo-1,2,3,5-tetrahydroimidazo[1,5-a]pyridin-6-yl)amino]thieno[2,3-d]pyrimidine-6-carboxamide] was tested, and the IC50 was 33.6 nM.
In the case of `Cc1cc(Nc2ncnc3sc(C(=O)N4CC(NC(=O)OC(C)(C)C)C4)cc23)c(=O)n2c1C(=O)NC2(C)C` [Example 139, tert-Butyl [1-({4-[(3,3,8-trimethyl-1,5-dioxo-1,2,3,5-tetrahydroimidazo[1,5-a]pyridin-6-yl)amino]thieno[2,3-d]pyrimidin-6-yl}carbonyl)azetidin-3-yl]carbamate], the IC50 is reported as 24.1 nM.
Compound `Cc1cc(Nc2ncnc3sc(C(=O)N4CC(N)C4)cc23)c(=O)n2c1C(=O)NC2(C)C` [Example 140, 6-({6-[(3-Aminoazetidin-1-yl)carbonyl]thieno[2,3-d]pyrimidin-4-yl}amino)-3,3,8-trimethyl-2,3-dihydroimidazo[1,5-a]pyridine-1,5-dione] has an IC50 of 22.3 nM.
Compound `Cc1cc(Nc2ncnc3sc(C(=O)N4CC(C#N)C4)cc23)c(=O)n2c1C(=O)NC2(C)C` [Example 141, 1-({4-[(3,3,8-Trimethyl-1,5-dioxo-1,2,3,5-tetrahydroimidazo[1,5-a]pyridin-6-yl)amino]thieno[2,3-d]pyrimidin-6-yl}carbonyl)azetidine-3-carbonitrile] has an IC50 of 24.2 nM.
Work on `Cc1cc(Nc2ncnc3sc(C(=O)N4CC[C@@H](N(C)C)C4)cc23)c(=O)n2c1C(=O)NC2(C)C` [Example 142, 6-[(6-{[(3R)-3-(Dimethylamino)pyrrolidin-1-yl]carbonyl}thieno[2,3-d]pyrimidin-4-yl)amino]-3,3,8-trimethyl-2,3-dihydroimidazo[1,5-a]pyridine-1,5-dione] yielded an IC50 of 20 nM.
In the case of `Cc1cc(Nc2ncnc3sc(C(=O)N4CCC(N(C)C)CC4)cc23)c(=O)n2c1C(=O)NC2(C)C` [Example 143, 6-[(6-{[4-(Dimethylamino)piperidin-1-yl]carbonyl}thieno[2,3-d]pyrimidin-4-yl)amino]-3,3,8-trimethyl-2,3-dihydroimidazo[1,5-a]pyridine-1,5-dione], the IC50 is reported as 40.3 nM.
`Cc1cc(Nc2ncnc3sc(C(=O)N4C[C@H]5C[C@@H]4CO5)cc23)c(=O)n2c1C(=O)NC2(C)C` [Example 144, 3,3,8-Trimethyl-6-({6-[(1R,4R)-2-oxa-5-azabicyclo[2.2.1]hept-5-ylcarbonyl]thieno[2,3-d]pyrimidin-4-yl}amino)-2,3-dihydroimidazo[1,5-a]pyridine-1,5-dione] gave an IC50 of 12.9 nM.
Compound `Cc1cc(Nc2ncnc3sc(C(=O)O)c(C)c23)c(=O)n2c1C(=O)NC2(C)C` [Example 145, 5-Methyl-4-[(3,3,8-trimethyl-1,5-dioxo-1,2,3,5-tetrahydroimidazo[1,5-a]pyridin-6-yl)amino]thieno[2,3-d]pyrimidine-6-carboxylic acid] has an IC50 of 115 nM.
Compound `Cc1cc(Nc2ncnc(NC(=O)C3CC3)n2)c(=O)n2c1C(=O)NC21CCC1` [Example 146, N-{4-[(8′-Methyl-1′,5′-dioxo-1′,5′-dihydro-2′H-spiro[cyclobutane-1,3′-imidazo[1,5-a]pyridin]-6′-yl)amino]-1,3,5-triazin-2-yl}cyclopropanecarboxamide] has an IC50 of 8.2 nM.
`Cc1cc(Nc2ncnc(N)n2)c(=O)n2c1C(=O)NC21CCC1` [Example 147, 6′-[(4-Amino-1,3,5-triazin-2-yl)amino]-8′-methyl-2′H-spiro[cyclobutane-1,3′-imidazo[1,5-a]pyridine]-1′,5′-dione] gave an IC50 of 12.7 nM.
For `Cc1cc(Nc2ncnc3[nH]ccc23)c(=O)n2c1C(=O)NC21CCC1` [Example 148, 8′-Methyl-6′-(7H-pyrrolo[2,3-d]pyrimidin-4-ylamino)-2′H-spiro[cyclobutane-1,3′-imidazo[1,5-a]pyridine]-1′,5′-dione], the IC50 was 0.4 nM.
`Cc1cc(Nc2ncnc3sccc23)c(=O)n2c1C(=O)NC21CCC1` [Example 149, 8′-Methyl-6′-(thieno[2,3-d]pyrimidin-4-ylamino)-2′H-spiro[cyclobutane-1,3′-imidazo[1,5-a]pyridine]-1′,5′-dione] was tested, and the IC50 was 2.3 nM.
With `Cc1cc(Nc2ncnc3sc(C(=O)O)cc23)c(=O)n2c1C(=O)NC21CCC1` [Example 150, 4-[(8′-Methyl-1′,5′-dioxo-1′,5′-dihydro-2′H-spiro[cyclobutane-1,3′-imidazo[1,5-a]pyridin]-6′-yl)amino]thieno[2,3-d]pyrimidine-6-carboxylic acid] the IC50 was 18.5 nM.
Compound `Cc1cc(Nc2ncnc3sc(C(=O)NCCN(C)C)cc23)c(=O)n2c1C(=O)NC21CCC1` [Example 151, N-[2-(Dimethylamino)ethyl]-4-[(8′-methyl-1′,5′-dioxo-1′,5′-dihydro-2′H-spiro[cyclobutane-1,3′-imidazo[1,5-a]pyridin]-6′-yl)amino]thieno[2,3-d]pyrimidine-6-carboxamide] has an IC50 of 4 nM.
`Cc1cc(Nc2ncnc3sc(C(=O)N(C)CCN(C)C)cc23)c(=O)n2c1C(=O)NC21CCC1` [Example 152, N-[2-(Dimethylamino)ethyl]-N-methyl-4-[(8′-methyl-1′,5′-dioxo-1′,5′-dihydro-2′H-spiro[cyclobutane-1,3′-imidazo[1,5-a]pyridin]-6′-yl)amino]thieno[2,3-d]pyrimidine-6-carboxamide] gave an IC50 of 7.4 nM.
Work on `Cc1cc(Nc2ncnc3sc(C(=O)N4CC(NC(=O)OC(C)(C)C)C4)cc23)c(=O)n2c1C(=O)NC21CCC1` [Example 153, tert-Butyl [1-({4-[(8′-methyl-1′,5′-dioxo-1′,5′-dihydro-2′H-spiro[cyclobutane-1,3′-imidazo[1,5-a]pyridin]-6′-yl)amino]thieno[2,3-d]pyrimidin-6-yl}carbonyl)azetidin-3-yl]carbamate] yielded an IC50 of 5.3 nM.
Work on `Cc1cc(Nc2ncnc3sc(C(=O)N4CC(N)C4)cc23)c(=O)n2c1C(=O)NC21CCC1` [Example 154, 6′-({6-[(3-Aminoazetidin-1-yl)carbonyl]thieno[2,3-d]pyrimidin-4-yl}amino)-8′-methyl-2′H-spiro[cyclobutane-1,3′-imidazo[1,5-a]pyridine]-1′,5′-dione] yielded an IC50 of 5 nM.
